Test results taken from patent publication US20240366770A1, “DEGRADATION OF BRUTON'S TYROSINE KINASE (BTK) BY CONJUGATION OF BTK INHIBITORS WITH E3 LIGASE LIGAND AND METHODS OF USE” (BeiGene Switzerland GmbH, priority 2021, published 2024).
Read-outs that look alike come from different tables or passages of the source.

Assays:
BTK = target: T1, BTK (Homo sapiens, UniProt Q06187); test: BTK degradation in TMD-8 cells (HTRF assay); assay type: cell-based; settings: 6 h treatment, IC50 (DC50) of BTK degradation
T1 construct: High control=Cell group with added DMSO and without compound, indicating microplate readings without BTK degradation; endogenous in cells; host or cells: TMD-8
T1 sequence (Q06187 whole entry): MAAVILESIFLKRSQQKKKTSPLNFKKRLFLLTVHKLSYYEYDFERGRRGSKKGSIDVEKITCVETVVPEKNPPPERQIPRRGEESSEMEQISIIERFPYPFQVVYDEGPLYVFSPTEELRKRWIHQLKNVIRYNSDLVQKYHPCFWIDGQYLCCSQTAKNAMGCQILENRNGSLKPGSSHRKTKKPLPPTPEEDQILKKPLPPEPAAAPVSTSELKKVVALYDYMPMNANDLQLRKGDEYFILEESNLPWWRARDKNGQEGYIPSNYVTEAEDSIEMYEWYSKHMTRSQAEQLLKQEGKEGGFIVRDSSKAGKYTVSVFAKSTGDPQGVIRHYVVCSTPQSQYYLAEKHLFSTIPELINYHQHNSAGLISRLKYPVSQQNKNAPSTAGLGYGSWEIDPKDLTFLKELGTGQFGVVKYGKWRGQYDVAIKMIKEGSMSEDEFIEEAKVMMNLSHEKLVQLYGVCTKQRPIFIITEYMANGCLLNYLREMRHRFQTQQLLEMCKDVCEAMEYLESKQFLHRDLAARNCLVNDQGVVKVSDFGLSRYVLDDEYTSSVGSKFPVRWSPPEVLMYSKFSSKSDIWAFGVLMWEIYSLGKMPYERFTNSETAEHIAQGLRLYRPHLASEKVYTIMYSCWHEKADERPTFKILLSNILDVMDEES
Procedure, shortened: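 BTK remaining after compound treatment was measured by HTRF (337 nm excitation, 665/620 nm emission) in lysates of TMD-8 cells. Cells were exposed for 6 h to eight 6-fold-spaced concentrations in 0.2% DMSO. DC50 values were obtained from a Hill-equation fit (top, bottom, slope) of % inhibition.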

HEK-293 cells = test: HEK-293 cytotoxicity detection (CellTiter-Glo); assay type: cell-based; settings: HEK-293 cells, 72 h incubation, CellTiter-Glo luminescence, IC50 of cell proliferation inhibition, read-out: HEK293
Procedure, shortened: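 Four-parameter logistic fitting of percent inhibition versus concentration gives IC50. Luminescent ATP read-out (CellTiter-Glo) after 72 h compound treatment of HEK-293 cells, 8 doses in 4-fold steps from a 5 mM 500× DMSO stock, final DMSO 0.2%.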

Row | SMILES | DC50 (BTK) | IC50 (HEK-293 cells; Homo sapiens) | IC50 (HEK-293 cells)
1 | Cc1cc(-c2ncnc3[nH]c4cc(N5CCN(CCc6ccc(N7CCC(=O)NC7=O)c(C)c6)CC5)ccc4c23)ccc1[C@@H](C)NC(=O)c1nc(C(C)(C)C)no1 [Example 17, (R)-3-(tert-butyl)-N-(1-(4-(7-(4-(4-(2,4-dioxotetrahydropyrimidin-1(2H)-yl)-3-methylphenethyl)piperazin-1-yl)-9H-pyrimido[4,5-b]indol-4-yl)-2-methylphenyl)ethyl)-1,2,4-oxadiazole-5-carboxamide] | 0.341 nM | > 10000 nM | 
2 | COc1cc2c(cc1N1CCN(CC3CCN(c4ccc(N5CCC(=O)NC5=O)cc4)CC3)CC1)[nH]c1ncnc(-c3ccc([C@@H](C)NC(=O)c4nc(C(C)(C)C)no4)c(C)c3F)c12 [Example 54, (R)-3-(tert-butyl)-N-(1-(4-(7-(4-((1-(4-(2,4-dioxotetrahydropyrimidin-1(2H)-yl)phenyl)piperidin-4-yl)methyl)piperazin-1-yl)-6-methoxy-9H-pyrimido[4,5-b]indol-4-yl)-3-fluoro-2-methylphenyl)ethyl)-1,2,4-oxadiazole-5-carboxamide] | 3.05 nM | > 10000 nM | 
3 | Cc1cc(-c2ncnc3[nH]c4cc(C5CCN(CCCOc6ccc(NC7CCC(=O)NC7=O)cc6)CC5)ccc4c23)ccc1CNC(=O)c1nc(C(C)(C)C)no1 (stereo not shown) [Example 3, 3-(tert-butyl)-N-(4-(7-(1-(3-(4-((2,6-dioxopiperidin-3-yl)amino)phenoxy)propyl)piperidin-4-yl)-9H-pyrimido[4,5-b]indol-4-yl)-2-methylbenzyl)-1,2,4-oxadiazole-5-carboxamide] | 2.15 nM | > 10000 nM | 
4 | Cc1c([C@@H](C)NC(=O)c2noc(C(C)(C)C)n2)ccc(-c2ncnc3[nH]c4cc(N5CCN(C6CN(c7ccc(N8CCC(=O)NC8=O)cc7)C6)CC5)ccc4c23)c1F [Example 63, (R)-5-(tert-butyl)-N-(1-(4-(7-(4-(1-(4-(2,4-dioxotetrahydropyrimidin-1(2H)-yl)phenyl)azetidin-3-yl)piperazin-1-yl)-9H-pyrimido[4,5-b]indol-4-yl)-3-fluoro-2-methylphenyl)ethyl)-1,2,4-oxadiazole-3-carboxamide] | 6.82 nM | > 10000 nM | 
5 | COc1cc2c(cc1N1CCN(C3CCN(c4cccc(C5CCC(=O)NC5=O)c4)C3)CC1)[nH]c1ncnc(-c3ccc([C@@H](C)NC(=O)c4nc(C(C)(C)C)no4)c(C)c3F)c12 (stereo partly drawn) [Example 57, 3-(tert-butyl)-N-((1R)-1-(4-(7-(4-(1-(3-(2,6-dioxopiperidin-3-yl)phenyl)pyrrolidin-3-yl)piperazin-1-yl)-6-methoxy-9H-pyrimido[4,5-b]indol-4-yl)-3-fluoro-2-methylphenyl)ethyl)-1,2,4-oxadiazole-5-carboxamide] | 9.6 nM | > 10000 nM | 
6 | COc1cc2c(cc1N1CCN(C3CC(c4ccc([C@H]5CCC(=O)NC5=O)cc4)C3)CC1)[nH]c1ncnc(-c3ccc([C@@H](C)NC(=O)c4nc(C5(C)CC5)no4)c(C)c3F)c12 (stereo partly drawn) [Example 72, N—((R)-1-(4-(7-(4-(3-(4-((R)-2,6-dioxopiperidin-3-yl)phenyl)cyclobutyl)piperazin-1-yl)-6-methoxy-9H-pyrimido[4,5-b]indol-4-yl)-3-fluoro-2-methylphenyl)ethyl)-3-(1-methylcyclopropyl)-1,2,4-oxadiazole-5-carboxamide] | 15.9 nM | > 10000 nM | 
7 | Cc1cc(-c2ncnc3[nH]c4cc(-c5ccn(CC6CCN(c7ccc(N8CCC(=O)NC8=O)cc7)CC6)c5)ccc4c23)ccc1[C@@H](C)NC(=O)c1nc(C(C)(C)C)no1 [Example 11, (R)-3-(tert-butyl)-N-(1-(4-(7-(1-((1-(4-(2,4-dioxotetrahydropyrimidin-1(2H)-yl)phenyl)piperidin-4-yl)methyl)-1H-pyrrol-3-yl)-9H-pyrimido[4,5-b]indol-4-yl)-2-methylphenyl)ethyl)-1,2,4-oxadiazole-5-carboxamide] | 9.78 nM | > 10000 nM | 
8 | Cc1cc(-c2ncnc3[nH]c4cc(N5CCN(CCc6ccc(C7CCC(=O)NC7=O)c(C)n6)CC5)ccc4c23)ccc1[C@@H](C)NC(=O)c1nc(C(C)(C)C)no1 (stereo partly drawn) [Example 16, 3-(tert-butyl)-N-((1R)-1-(4-(7-(4-(2-(5-(2,6-dioxopiperidin-3-yl)-6-methylpyridin-2-yl)ethyl)piperazin-1-yl)-9H-pyrimido[4,5-b]indol-4-yl)-2-methylphenyl)ethyl)-1,2,4-oxadiazole-5-carboxamide] | 0.347 nM | > 10000 nM | 
9 | Cc1cc(CCN2CCN(c3ccc4c(c3)[nH]c3ncnc(-c5ccc([C@@H](C)NC(=O)c6nc(C(C)(C)C)no6)c(C)c5)c34)CC2)ccc1C1CCC(=O)NC1=O (stereo partly drawn) [Example 18, 3-(tert-butyl)-N-((1R)-1-(4-(7-(4-(4-(2,6-dioxopiperidin-3-yl)-3-methylphenethyl)piperazin-1-yl)-9H-pyrimido[4,5-b]indol-4-yl)-2-methylphenyl)ethyl)-1,2,4-oxadiazole-5-carboxamide] | 0.607 nM | > 10000 nM | 
10 | Cc1c([C@@H](C)NC(=O)c2noc(C(C)(C)C)n2)ccc(-c2ncnc3[nH]c4cc(N5CCN(Cc6ccc7c(c6)C(C)(C)C(=O)N7C6CCC(=O)NC6=O)CC5)ccc4c23)c1F (stereo partly drawn) [Example 86, 5-(tert-butyl)-N-((1R)-1-(4-(7-(4-((1-(2,6-dioxopiperidin-3-yl)-3,3-dimethyl-2-oxoindolin-5-yl)methyl)piperazin-1-yl)-9H-pyrimido[4,5-b]indol-4-yl)-3-fluoro-2-methylphenyl)ethyl)-1,2,4-oxadiazole-3-carboxamide] | > 2000 nM | > 10000 nM | 
11 | Cc1c([C@@H](C)NC(=O)c2noc(C(C)(C)C)n2)ccc(-c2ncnc3[nH]c4cc(N5CCC(CN6CCC(c7ccc(C8CCC(=O)NC8=O)cc7)CC6)CC5)ccc4c23)c1F (stereo partly drawn) [Example 36, 5-(tert-butyl)-N-((1R)-1-(4-(7-(4-((4-(4-(2,6-dioxopiperidin-3-yl)phenyl)piperidin-1-yl)methyl)piperidin-1-yl)-9H-pyrimido[4,5-b]indol-4-yl)-3-fluoro-2-methylphenyl)ethyl)-1,2,4-oxadiazole-3-carboxamide] | 0.804 nM | 3410 nM | 
12 | COc1cc2c(cc1N1CCN(Cc3ccc4c(c3)C3(CC3)C(=O)N4C3CCC(=O)NC3=O)CC1)[nH]c1ncnc(-c3ccc([C@@H](C)NC(=O)c4nc(C(C)(C)C)no4)c(C)c3)c12 (stereo partly drawn) [Example 76, 3-(tert-butyl)-N-((1R)-1-(4-(7-(4-((1′-(2,6-dioxopiperidin-3-yl)-2′-oxospiro[cyclopropane-1,3′-indolin]-5′-yl)methyl)piperazin-1-yl)-6-methoxy-9H-pyrimido[4,5-b]indol-4-yl)-2-methylphenyl)ethyl)-1,2,4-oxadiazole-5-carboxamide] | 1.6 nM | > 10000 nM | 
13 | Cc1cc(-c2ncnc3[nH]c4cc(CCN5CCN(c6ccc(N7CCC(=O)NC7=O)cc6)CC5)ccc4c23)ccc1[C@@H](C)NC(=O)c1nc(C(C)(C)C)no1 [Example 106, (R)-3-(tert-butyl)-N-(1-(4-(7-(2-(4-(4-(2,4-dioxotetrahydropyrimidin-1(2H)-yl)phenyl)piperazin-1-yl)ethyl)-9H-pyrimido[4,5-b]indol-4-yl)-2-methylphenyl)ethyl)-1,2,4-oxadiazole-5-carboxamide] | 0.324 nM | > 10000 nM | 
14 | CC(C)(C)c1noc(C(=O)NC(C)(C)C2CCN(c3ncnc4[nH]c5cc(N6CCN(CC7CCN(c8ccc(N9CCC(=O)NC9=O)cc8)CC7)CC6)ccc5c34)CC2)n1 [Example 131, 3-(tert-butyl)-N-(2-(1-(7-(4-((1-(4-(2,4-dioxotetrahydropyrimidin-1(2H)-yl)phenyl)piperidin-4-yl)methyl)piperazin-1-yl)-9H-pyrimido[4,5-b]indol-4-yl)piperidin-4-yl)propan-2-yl)-1,2,4-oxadiazole-5-carboxamide] | 27.5 nM | > 10000 nM | 
15 | Cc1cc(-c2ncnc3[nH]c4cc(N5CCN(C6CC(c7ccc(C8CCC(=O)NC8=O)cc7)C6)CC5)ccc4c23)ccc1[C@@H](C)NC(=O)c1nc(C(C)(C)C)no1 (stereo partly drawn) [Example 15, 3-(tert-butyl)-N-((1R)-1-(4-(7-(4-(3-(4-(2,6-dioxopiperidin-3-yl)phenyl)cyclobutyl)piperazin-1-yl)-9H-pyrimido[4,5-b]indol-4-yl)-2-methylphenyl)ethyl)-1,2,4-oxadiazole-5-carboxamide] | 0.616 nM | > 10000 nM | 
16 | COc1cc2c(cc1N1CCN([C@H]3C[C@@H](c4ccc(O[C@H]5CCC(=O)NC5=O)cc4)C3)CC1)[nH]c1ncnc(-c3ccc([C@@H](C)NC(=O)c4nc(C(C)(C)C)no4)c(C)c3)c12 [Example 128, 3-(tert-butyl)-N—((R)-1-(4-(7-(4-((1R,3s)-3-(4-(((S)-2,6-dioxopiperidin-3-yl)oxy)phenyl)cyclobutyl)piperazin-1-yl)-6-methoxy-9H-pyrimido[4,5-b]indol-4-yl)-2-methylphenyl)ethyl)-1,2,4-oxadiazole-5-carboxamide] | 2.12 nM |  | > 10000 nM
17 | COc1cc2c(cc1N1CCN(Cc3ccc(SC4CCC(=O)NC4=O)cc3)CC1)[nH]c1ncnc(-c3ccc([C@@H](C)NC(=O)c4nc(C(C)(C)C)no4)c(C)c3)c12 (stereo partly drawn) [Example 75, 3-(tert-butyl)-N-((1R)-1-(4-(7-(4-(4-((2,6-dioxopiperidin-3-yl)thio)benzyl)piperazin-1-yl)-6-methoxy-9H-pyrimido[4,5-b]indol-4-yl)-2-methylphenyl)ethyl)-1,2,4-oxadiazole-5-carboxamide] | > 2000 nM | > 10000 nM | 
